In patent publication US12522582B2 (Gilead Sciences, Inc., priority 2022, dated 2026) one finds EC50 data, which are given here for 39 compounds.

Structures are written as SMILES. Where two headings read alike, the source gives them in different places.

In the test the test system is HSV-2 virus (MS strain). The test is described as follows: HSV-2 Cellomics Assay (immunofluorescence of HSV protein gD in infected ARPE-19 cells). Conditions: Human alphaherpesvirus 2, ARPE-19, 16 h.
The mark [1] stands for this setting: read-out: EC50-HSV2-10% Human Serum.

Procedure: Compounds were tested for their ability to inhibit HSV-2 replication by monitoring the expression of the HSV protein gD using a high-throughput immunofluorescence-based assay. 10-dose, 3-fold serial dilutions of compounds were prepared at starting concentrations of 0.2 or 2 mM in 100% DMSO. […] The final starting concentration in the assay was either 1 or 10 μM. DMSO (no compound) and pritelivir were included on each microplate as negative and positive controls, respectively.
Prior to confluence, cells were transferred to a centrifuge tube and spun for 5 minutes at 1000 rpm. Cells were resuspended in assay medium (DMEM/F-12 Glutamax, 2% FBS, 1% Penicillin-Streptomycin) and counted. Cell density was adjusted to 150,000 cells/ml and infected with HSV-2 virus (MS strain, ATCC cat #VR-540) at a MOI of 0.06 in a 50 ml conical tube for 1 hour under constant rocking. Cells were then spun for 5 minutes at 1000 rpm and the media replaced with assay medium containing either 2% FBS or 10% human serum (EMD Millipore cat #S1-100 ML). 50 μl of the infection suspension were added into microplate wells that were pre-spotted with compounds (7,500 cells per well). Plates were incubated for 16 hours at 37° C.
After a 30-minute incubation at room temperature, plates were washed 4 times with 100 μl/well of PBS using a Biotek plate washer. […] Plates were washed 4 times again and 50 μl of DPBS were added to all wells prior to sealing the plates with a black adhesive seal. Fluorescence was measured on a Cellomics plate reader.
Data analysis was carried out using the Thermo Scientific HCS Studio software. Briefly, cells were identified using the DAPI nuclear stain and thresholds were set to filter cells out based on shape and size. A second threshold based on green fluorescence intensity (detection of HSV-2 gD) was set to identify HSV-2 infected cells. Data was reported as the average fluorescence intensity of HSV-2 infected cells.

What is called EC50 is the concentration that produces a half-maximal response. Take `C[C@@H]1Cc2ccc(S(N)(=O)=O)cc2N1C(=O)[C@H]1Cc2ccc(-c3ccccn3)cc2C1` (single isomer, unassigned) [Example 14]: under “read-out: EC50-HSV2-FBS”, the EC50 was 2480 nM. Turning to `CC1c2cc(-c3ccccn3)ccc2CC1C(=O)N1CCc2ccc(S(N)(=O)=O)cc21` (centres unmarked) [Example 95, 1-(1-methyl-6-(pyridin-2-yl)-2,3-dihydro-1H-indene-2-carbonyl) indoline-6-sulfonamide], the EC50 reads like this: under setting [1], at least 25000 nM; (read-out: EC50-HSV2-FBS) 2850 nM. Take `C[C@H]1Cc2cc(Cl)c(S(N)(=O)=O)cc2N1C(=O)[C@@H]1Cc2ccc(-c3ccccn3)cc2C1` [Example 59, (S)-5-chloro-2-methyl-1-((R)-5-(pyridin-2-yl)-2,3-dihydro-1H-indene-2-carbonyl)indoline-6-sulfonamide]: the EC50 runs as follows: under setting [1], at least 10000 nM; (read-out: EC50-HSV2-FBS) 385 nM.

For `CS(=N)(=O)c1ccc2c(c1)N(C(=O)C1Cc3ccc(-c4ccccn4)cc3C1)CC2` (centres unmarked) [Example 29, imino(methyl)(1-(5-(pyridin-2-yl)-2,3-dihydro-1H-indene-2-carbonyl)indolin-6-yl)-λ^6-sulfanone], the EC50 is, setting by setting: under setting [1], 3240 nM; (read-out: EC50-HSV2-FBS) 193 nM.

`NS(=O)(=O)c1ccc2c(c1)N(C(=O)C1Cc3ccc(-c4nccs4)cc3C1)CC2` (centres unmarked) [Example 20]: under “read-out: EC50-HSV2-FBS”, the EC50 was 91 nM. Take `NS(=O)(=O)c1ccc2c(c1)N(C(=O)[C@@H]1Cc3ccc(-c4cccc5ccccc45)cc3C1)CC2` [Example 134, (R)-1-(5-(naphthalen-1-yl)-2,3-dihydro-1H-indene-2-carbonyl)indoline-6-sulfonamide]: the concentration for a half-maximal effect (EC50) reads like this: under setting [1], 3100 nM; (read-out: EC50-HSV2-FBS) 231 nM. For `C[S@@](=N)(=O)c1cc2c(cc1F)CCN2C(=O)[C@@H]1Cc2ccc(-c3ccccn3)cc2C1` [Example 40, (R)-(5-fluoro-1-((R)-5-(pyridin-2-yl)-2,3-dihydro-1H-indene-2-carbonyl)indolin-6-yl)(imino)(methyl)-16-sulfanone] the same measures were 816 nM and 196 nM. For `N#Cc1nc(-c2ccc3c(c2)CC(C(=O)N2CCc4ccc(S(N)(=O)=O)cc42)C3)cs1` (centres unmarked) [Example 27], where the note is “read-out: EC50-HSV2-FBS”, the EC50 came to 383 nM. As for `CCC1Cc2cc(F)c(S(=N)(=O)O)cc2N1C(=O)[C@@H]1Cc2ccc(-c3ccccn3)cc2C1` (mixture of isomers) [Example 112], the EC50 under setting [1] was found to be 579 nM and the EC50 (read-out: EC50-HSV2-FBS) was 81 nM. Take `NS(=O)(=O)c1ccc2c(c1)N(C(=O)[C@@H]1Cc3ccc(-c4ccccc4F)cc3C1)CC2` [Example 83, (R)-1-(5-(2-fluorophenyl)-2,3-dihydro-1H-indene-2-carbonyl)indoline-6-sulfonamide]: the EC50 runs as follows: under setting [1], at least 25000 nM; (read-out: EC50-HSV2-FBS) 177 nM.

Take `C[C@H]1Cc2ccc(S(N)(=O)=O)cc2N1C(=O)C1Cc2cc(-c3ccccn3)ccc2O1` (some centres unmarked) [Example 56]: the EC50 is 2220 nM under setting [1] and 255 nM (read-out: EC50-HSV2-FBS). As to `Cc1csc(-c2ccc3c(c2)CC(C(=O)N2CCc4ccc(S(N)(=O)=O)cc42)C3)n1` (centres unmarked) [Example 22], for the setting “read-out: EC50-HSV2-FBS”, the EC50 is 48 nM. On to `COc1cc2c(cc1S(N)(=O)=O)N(C(=O)C1Cc3ccc(-c4ccccn4)cc3C1)CC2` (centres unmarked) [Example 111, 5-Methoxy-1-[5-(2-pyridyl)indane-2-carbonyl]indoline-6-sulfonamide], for which the EC50 was at least 25000 nM under setting [1] and 1740 nM (read-out: EC50-HSV2-FBS). For `NS(=O)(=O)c1cc2c(cc1Br)CCN2C(=O)C1Cc2ccc(-c3ccccn3)cc2C1` (centres unmarked) [Example 110, 5-Bromo-1-(5-(pyridin-2-yl)-2,3-dihydro-1H-indene-2-carbonyl)indoline-6-sulfonamide] the same measures were at least 25000 nM and 26 nM. As for `NS(=O)(=O)c1ccc2c(c1)N(C(=O)C1Cc3ccc(-c4ccccn4)cc3C1)CC2` (centres unmarked) [Example 71, 1-(5-(pyridin-2-yl)-2,3-dihydro-1H-indene-2-carbonyl) indoline-6-sulfonamide], the EC50 was at least 25000 nM under setting [1] and 30 nM (read-out: EC50-HSV2-FBS). For `C[C@@H]1CN(C(=O)[C@H]2Cc3cc(-c4ccccn4)c(F)cc3O2)c2cc(S(N)(=O)=O)c(F)cc21` [Example 136, (S)-5-fluoro-1-((R)-6-fluoro-5-(pyridin-2-yl)-2,3-dihydrobenzofuran-2-carbonyl)-3-methylindoline-6-sulfonamide] the same measures were 2220 nM and 89.6 nM. Turning to `C[C@H]1c2ccc(-c3ccccn3)cc2C[C@@H]1C(=O)N1C[C@H](C(F)(F)F)c2cc(F)c(S(N)(=O)=O)cc21` [Example 139, (R)-5-fluoro-1-((1R,2S)-1-methyl-5-(pyridin-2-yl)-2,3-dihydro-1H-indene-2-carbonyl)-3-(trifluoromethyl)indoline-6-sulfonamide], the EC50 under setting [1] worked out at 1710 nM and the EC50 (read-out: EC50-HSV2-FBS) is 74.2 nM. As for `C[C@@H]1CN(C(=O)[C@@H]2Cc3ccc(-c4ccccn4)cc3C2)c2cc(S(N)(=O)=O)ccc21` [Example 108, (S)-3-methyl-1-((R)-5-(pyridin-2-yl)-2,3-dihydro-1H-indene-2-carbonyl)indoline-6-sulfonamide], under “read-out: EC50-HSV2-FBS”, the EC50 turned out to be 285 nM.

Take `CC[C@H]1Cc2cc(F)c(S(N)(=O)=O)cc2N1C(=O)[C@@H]1Cc2ccc(-c3ccccn3)cc2C1` [Example 114]: the EC50 was 926 nM under setting [1] and 128 nM (read-out: EC50-HSV2-FBS). For `Cc1cc(S(N)(=O)=O)cc2c1CCN2C(=O)C1Cc2ccc(-c3ccccn3)cc2C1` (centres unmarked) [Example 2] the same measures were 23600 nM and 65 nM.

On to `C[C@@H]1c2ccc(-c3ccccn3)cc2C[C@H]1C(=O)N1CCc2cc(F)c(S(N)(=O)=O)cc21` [Example 98, 5-fluoro-1-((1S,2R)-1-methyl-5-(pyridin-2-yl)-2,3-dihydro-1H-indene-2-carbonyl)indoline-6-sulfonamide], for which the EC50 came out at 6650 nM under setting [1] and 1360 nM (read-out: EC50-HSV2-FBS). As to `NS(=O)(=O)c1ccc2c(c1)N(C(=O)[C@H]1Cc3ccc(-c4ccccn4)cc3C1)CC2` [Example 80, (S)-1-(5-(pyridin-2-yl)-2,3-dihydro-1H-indene-2-carbonyl)indoline-6-sulfonamide], the EC50 (read-out: EC50-HSV2-FBS) stood at 409 nM. For the compound `NS(=O)(=O)c1cc2c(cc1F)CCN2C(=O)C1Cc2cc(-c3ccccn3)cc(F)c2C1` (centres unmarked) [Example 13], the EC50 was at least 10000 nM under setting [1] and 250 nM (read-out: EC50-HSV2-FBS). As for `C[C@H]1c2cc(F)c(S(N)(=O)=O)cc2N(C(=O)[C@@H]2Cc3ccc(-c4ccccn4)cc3C2)[C@H]1C` [Example 49, (2S,3S)-5-fluoro-2,3-dimethyl-1-((R)-5-(pyridin-2-yl)-2,3-dihydro-1H-indene-2-carbonyl)indoline-6-sulfonamide], the EC50 is, setting by setting: under setting [1], 1040 nM; (read-out: EC50-HSV2-FBS) 162 nM. For `NS(=O)(=O)c1ccc2c(c1F)N(C(=O)C1Cc3ccc(-c4ccccn4)cc3C1)CC2` (centres unmarked) [Example 4] the same measures were at least 25000 nM and 284 nM. Turning to `Cc1c(S(N)(=O)=O)ccc2c1N(C(=O)C1Cc3ccc(-c4ccccn4)cc3C1)CC2` (centres unmarked) [Example 1], where the note is “read-out: EC50-HSV2-FBS”, the EC50 is 721 nM. Same read-out and setting: as for `COc1nc(-c2ccc3c(c2)CC(C(=O)N2CCc4ccc(S(N)(=O)=O)cc42)C3)cs1` (centres unmarked) [Example 26], the figure is 131 nM; as for `C[C@H]1Cc2ccc(S(N)(=O)=O)cc2N1C(=O)[C@H]1Cc2ccc(-c3ccccn3)cc2C1` (single isomer, unassigned) [Example 17], 551 nM. As to `NS(=O)(=O)c1ccc2c(c1)N(C(=O)C1Cc3ccc(-c4ccccc4)cc3C1)CC2` (centres unmarked) [Example 69, 1-(5-phenyl-2,3-dihydro-1H-indene-2-carbonyl) indoline-6-sulfonamide], the EC50 reads like this: under setting [1], at least 25000 nM; (read-out: EC50-HSV2-FBS) 119 nM. For the compound `NS(=O)(=O)c1ccc2c(c1)N(C(=O)C1Cc3cc(Cl)c(-c4ccccn4)cc3C1)CC2` (centres unmarked) [Example 12], under “read-out: EC50-HSV2-FBS”, the EC50 amounted to 5040 nM. Turning to `CC1c2ccc(-c3ccccn3)cc2CC1C(=O)N1CCc2ccc(S(N)(=O)=O)cc21` (centres unmarked) [Example 92], the EC50 was found to be 238 nM under setting [1] and 28 nM (read-out: EC50-HSV2-FBS). On to `NS(=O)(=O)c1ccc2c(c1)N(C(=O)[C@H]1Cc3ccc(-c4ccccc4F)cc3C1)CC2` [Example 82, (S)-1-(5-(2-fluorophenyl)-2,3-dihydro-1H-indene-2-carbonyl)indoline-6-sulfonamide], for which the EC50 (read-out: EC50-HSV2-FBS) amounted to 8040 nM. With `C[C@@H]1Cc2cc(F)c(S(N)(=O)=O)cc2N1C(=O)[C@@H]1Cc2cc(-c3ccccn3)ccc2O1` [Example 43], the EC50 under setting [1] was determined as 9270 nM and the EC50 (read-out: EC50-HSV2-FBS) was 352 nM.

For `C[S@@](=N)(=O)c1cc2c(cc1F)CCN2C(=O)[C@@H]1Cc2ccc(-c3cc(F)ccc3F)cc2C1` [Example 52], the EC50 by setting is: under setting [1], 2000 nM; (read-out: EC50-HSV2-FBS) 340 nM.

`C[C@H]1CN(C(=O)[C@H]2Cc3cc(-c4ccccn4)c(F)cc3O2)c2cc(S(N)(=O)=O)c(F)cc21` [Example 137, (R)-5-fluoro-1-((R)-6-fluoro-5-(pyridin-2-yl)-2,3-dihydrobenzofuran-2-carbonyl)-3-methylindoline-6-sulfonamide]: the EC50 reads like this: under setting [1], 538 nM; (read-out: EC50-HSV2-FBS) 129 nM. As for `NS(=O)(=O)c1ccc2c(c1)N(C(=O)C1Cc3ccc(-c4ccccn4)cc3O1)CC2` (centres unmarked) [Example 115, 1-(6-(pyridin-2-yl)-2,3-dihydrobenzofuran-2-carbonyl)indoline-6-sulfonamide], the EC50 by setting is: under setting [1], 1640 nM; (read-out: EC50-HSV2-FBS) 99 nM. `NS(=O)(=O)c1ccc2c(c1)N(C(=O)C1Cc3ccc(-c4ccccn4)c(Cl)c3C1)CC2` (centres unmarked) [Example 11]: the EC50 (read-out: EC50-HSV2-FBS) was 7660 nM. Regarding `NS(=O)(=O)c1ccc2c(c1)N(C(=O)[C@@H]1Cc3ccc(-c4cc(F)ccc4F)cc3C1)CC2` [Example 45, (R)-1-(5-(2,5-difluorophenyl)-2,3-dihydro-1H-indene-2-carbonyl)indoline-6-sulfonamide], the EC50 by setting is: under setting [1], at least 10000 nM; (read-out: EC50-HSV2-FBS) 67 nM. For the compound `NS(=O)(=O)c1ccc2c(c1)N(C(=O)C1Cc3ccc(-c4cncc(F)n4)cc3C1)CC2` (centres unmarked) [Example 18], where the note is “read-out: EC50-HSV2-FBS”, the EC50 came to 180 nM.
